Source: article PMC8212937 (Alcoholism, clinical and experimental research, 2009)

Columns and labels:
ALDH-1 = target: T1, ALDH-1 (Homo sapiens, UniProt P00352); experiment: fluorimetric dehydrogenase activity assay; format: biochemical
T1 sequence (P00352 2-501): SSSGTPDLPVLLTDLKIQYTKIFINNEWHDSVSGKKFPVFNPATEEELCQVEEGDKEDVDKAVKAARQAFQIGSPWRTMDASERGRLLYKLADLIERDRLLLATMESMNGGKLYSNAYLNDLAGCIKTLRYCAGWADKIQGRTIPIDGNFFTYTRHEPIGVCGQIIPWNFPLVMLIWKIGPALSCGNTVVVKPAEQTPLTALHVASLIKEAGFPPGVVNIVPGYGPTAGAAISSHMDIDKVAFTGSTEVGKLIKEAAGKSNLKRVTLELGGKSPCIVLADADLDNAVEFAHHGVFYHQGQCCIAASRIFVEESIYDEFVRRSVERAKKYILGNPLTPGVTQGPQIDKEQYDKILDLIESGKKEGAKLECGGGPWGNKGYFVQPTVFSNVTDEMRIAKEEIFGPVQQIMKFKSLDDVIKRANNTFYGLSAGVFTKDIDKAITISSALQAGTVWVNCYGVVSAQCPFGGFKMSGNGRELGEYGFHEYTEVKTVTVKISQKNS

[1] = target: T2, aldehyde dehydrogenase 2 (ALDH-2) (Homo sapiens, UniProt P05091); experiment: fluorimetric dehydrogenase activity assay; format: biochemical
T2 sequence (P05091 18-517): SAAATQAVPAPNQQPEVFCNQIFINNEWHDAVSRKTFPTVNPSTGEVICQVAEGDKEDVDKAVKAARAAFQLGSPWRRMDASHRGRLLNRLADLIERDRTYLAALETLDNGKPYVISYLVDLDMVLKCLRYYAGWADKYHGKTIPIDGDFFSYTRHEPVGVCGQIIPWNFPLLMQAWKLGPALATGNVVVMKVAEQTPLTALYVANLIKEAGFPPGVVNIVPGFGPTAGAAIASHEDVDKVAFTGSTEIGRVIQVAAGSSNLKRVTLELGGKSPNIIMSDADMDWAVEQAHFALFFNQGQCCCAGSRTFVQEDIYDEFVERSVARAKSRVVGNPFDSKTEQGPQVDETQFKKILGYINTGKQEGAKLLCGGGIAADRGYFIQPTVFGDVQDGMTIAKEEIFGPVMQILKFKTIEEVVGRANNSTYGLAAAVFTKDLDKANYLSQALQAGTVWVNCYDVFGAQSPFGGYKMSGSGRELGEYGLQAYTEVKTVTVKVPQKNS

- IC50 (ALDH-1): 1300 nM
- IC50 [1]: ~29 nM
SMILES: CS(=O)(=O)Nc1ccc(-c2coc3cc(OCc4cccc(C(=O)O)c4)ccc3c2=O)cc1 [CVT-10216, 3-((3-(4-(methylsulfonamido)phenyl)-4-oxo-4H-chromen-7-yloxy)methyl)benzoic acid]
